Measured values from patent publication US5279956A, “Activated protein C polypeptides and anti-peptide antibodies, diagnostic methods and systems for inhibiting activated protein C” (The Scripps Research Institute, priority 1991, dated 1994).
No end group written: not given here.

Experiments:
[1] = molecular target: T1, APC (Homo sapiens, UniProt P04070); test: Xa-1-stage coagulation assay of APC anticoagulant activity; assay type: biochemical
T1 construct: begins at amino acid residue position 158 and ends at 419; The light chain is 155 amino acid residues in length; tissue Factor IX concentrate from Immuno AG, Vienna; thrombin from Enzyme Research Laboratories
Protocol: For testing the inhibition of the synthetic peptides on APC activity described above, Xa-1-stage coagulation assays were also performed as described. See Seegers et al., Thrombosis Res., 13:233-243 (1978); Marlar et al., supra; and Walker et al., J. Biol. Chem. 265:1484-1489 (1990). […] The resulting admixtures were maintained for seven minutes at 37° C. Separate aliquots of peptides maintained under the same conditions in the absence of APC served as controls for the inhibitory effect of synthetic peptides on APC anticoagulant activity. After the maintenance period, 100 μl of NHP and 100 μl of 200 μg/ml of rabbit brain cephalin (Sigma) were admixed into each peptide admixture and maintained for 200 seconds at 37° C. to form pre-coagulation admixtures. In some experiments, Factor VIII deficient plasma (George King Bio-Medical, Inc.) was used in the place of NHP to determine the effect of Factor VIII on the assay system. Coagulation was then initiated by the admixture of 100 μl of 0.62 nM human activated Factor X (Xa) (Enzyme Research Laboratories, Southbend, Ind.) in TBS-BSA containing 30 mM CaCl2 prewarmed to 37° C. to each of the pre-coagulation admixtures.
The time for clot formation was measured by an Electra 700 Automatic Coagulation Timer (Medical Laboratory Automation, Inc., Mount Vernon, N.Y.). Each peptide's effect was determined in duplicate. The results of the inhibition of APC anticoagulant activity by synthetic peptides as measured in Xa-1-stage coagulation assays are described above and are presented as the mean values obtained with […].
Additional assays were performed to compare the specificity of the inhibitory effect of peptide-(390-404) on APC anticoagulant activity. Both APTT and Xa-1-stage assays were performed with peptide-(390-404) and with the same peptide synthesized in the reverse order, peptide-(404-390), at concentrations of the peptides ranging from 0 μM to 40 μM. In APTT assays performed as described above in the presence of NHP, APC was used at a concentration of 2.5 nM. […]

[2] = molecular target: T1, APC; test: Amidolytic activity of APC towards chromogenic substrate S-2366; assay type: biochemical; settings: for effect on APC amidolytic activity towards S-2366: all concentrations up to 500 μM
Protocol: The effects of PC-derived inhibitory synthetic peptides on the amidolytic activity of APC were evaluated to determine if the peptides inhibited APC anticoagulant activity by blocking a region in or close to the active site of the enzyme involved in cleavage of a small substrate such as S-2366 (Kabi-Vitrum) or involved in the site of interaction with the recombinant mutant (Arg^358)α1 -antitrypsin (α1 -AT) (Transgene, Strasbourg, France), the latter of which is described in Example 5a4) below. The assay was performed as described by Marlar et al., supra; and Suzuki et al., supra.
The amidolytic activity of APC toward the peptide substrate S-2366 was measured in the presence of various PC synthetic peptides prepared in Example 1. For the assay, 100 μl of 15 nM APC, prepared in Example 2c2), was admixed with separate aliquots of peptide-(390-404) ranging in concentration from 0.0 to 750 μM prepared in TBS-BSA at pH 7.4 containing 0.02% NaN3 and 2 mM CaCl2 to form APC-peptide admixtures, respectively. After maintenance of the admixtures for 30 minutes at 37° C., 50 μl of 2.4 mM S-2366 in the same buffer was admixed to initiate the amidolytic reaction. The hydrolysis of the substrate was monitored by the change in absorbance at 405 nm at 37° C. over time using an EL312 Microplate Bio-Kinetics Reader (BIO-TEK Instruments, Inc. Vt.).
The amidolytic activity of APC toward the peptide substrate S-2366 was measured in the presence of anti-(390-404) antibody. For the assay, 100 μl of 15 nM APC, prepared in Example 2c2), were admixed with separate aliquots of anti-(390-404) antibody ranging in concentration from 0.0 to 500 nM prepared in TBS-BSA at pH 7.4 containing 0.02% NaN3 and 2 mM CaCl2 to form APC-anti-(390-404) antibody immunoreaction admixtures, respectively. After maintenance of the admixtures for 30 minutes at 37° C. to allow formation of immunoreaction products, 50 μl of 2.4 mM S-2366 in the same buffer was admixed to initiate the amidolytic reaction. The hydrolysis of the substrate was monitored by the change in absorbance at 405 nm over time using an EL312 Microplate Bio-Kinetics Reader (BIO-TEK Instruments, Inc. Vt.).

T1 sequence (P04070 212-461): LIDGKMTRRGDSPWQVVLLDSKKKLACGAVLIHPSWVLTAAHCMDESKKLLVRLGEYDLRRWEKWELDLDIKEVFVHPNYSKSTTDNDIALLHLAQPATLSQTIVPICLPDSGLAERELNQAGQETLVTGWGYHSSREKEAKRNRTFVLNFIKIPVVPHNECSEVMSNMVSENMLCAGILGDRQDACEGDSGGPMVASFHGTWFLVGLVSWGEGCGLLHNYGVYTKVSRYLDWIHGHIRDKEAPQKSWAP
T1 sequence (P04070 43-197): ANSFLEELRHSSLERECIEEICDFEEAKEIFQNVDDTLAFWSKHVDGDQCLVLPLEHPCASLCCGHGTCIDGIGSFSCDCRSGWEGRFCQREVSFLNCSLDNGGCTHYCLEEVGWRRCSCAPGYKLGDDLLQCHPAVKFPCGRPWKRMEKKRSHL

Row | Substance | effect on APC in Xa1-stage assay ([1]; up to 100 μM) | APC amidolytic activity towards S-2366, A405 /5 min ([2]; APC + 250 μM peptide) | effect on APC amidolytic activity towards S-2366 [2] | APC amidolytic activity towards S-2366, A405 /5 min ([2]; APC + 500 μM peptide) | IC50 [1] | IC90 [1]
1 | KRNRTFVLNFIKIPV-NH2 [peptide-(311-325), KRNRTFVLNFIKIPV] | no effect | 0.342 A405 /5 min | did not significantly alter |  |  | 
2 | SGLLHNYGVYTKVSR-NH2 [peptide-(384-398), -SGLLHNYGVYTKVSR] |  |  | did not significantly alter | 0.378 A405 /5 min |  | 
3 | YGVYTKVSRYLDWIH-NH2 [peptide-(390-404), YGVYTKVSRYLDWIH] |  |  |  |  | 5 µM | 40 µM
